BigSolDB 2.1

Nc1cncc(Cl)n1
solubility (mole fraction)
Details | in DMF | in acetone | in acetonitrile | in ethanol | in ethylene glycol | in isopropanol | in methanol | in n-propanol | in propylene glycol | in water
278.15 K | 0.00915 | 0.0117 | 0.00984 | 0.00159 | 0.000717 | 0.00421 | 0.00114 | 0.00494 | 0.000917 | 3.62e-05
283.15 K | 0.0111 | 0.0141 | 0.0119 | 0.0019 | 0.000905 | 0.00503 | 0.00135 | 0.00588 | 0.00115 | 4.42e-05
288.15 K | 0.0135 | 0.0167 | 0.0143 | 0.00226 | 0.00113 | 0.00608 | 0.00164 | 0.00709 | 0.00139 | 5.21e-05
293.15 K | 0.0162 | 0.0198 | 0.0172 | 0.00272 | 0.00141 | 0.00737 | 0.00196 | 0.00858 | 0.00171 | 6.29e-05
298.15 K | 0.0194 | 0.0231 | 0.0209 | 0.00323 | 0.00172 | 0.00874 | 0.00244 | 0.0105 | 0.00204 | 7.43e-05
303.15 K | 0.023 | 0.0269 | 0.0248 | 0.00384 | 0.00204 | 0.0104 | 0.00293 | 0.0127 | 0.00237 | 8.97e-05
308.15 K | 0.0271 | 0.0314 | 0.0295 | 0.00453 | 0.00239 | 0.0122 | 0.00347 | 0.0152 | 0.00281 | 0.000105
313.15 K | 0.0322 | 0.0371 | 0.0352 | 0.0053 | 0.00281 | 0.0146 | 0.00415 | 0.0181 | 0.00327 | 0.000123
318.15 K | 0.0378 | 0.0431 | 0.041 | 0.00624 | 0.00325 | 0.017 | 0.00489 | 0.0211 | 0.00379 | 0.000143
323.15 K | 0.0442 | 0.0505 | 0.0488 | 0.00756 | 0.00377 | 0.0198 | 0.00575 | 0.0246 | 0.00448 | 0.000168
